Measured values taken from PubChem BioAssay AID179 (DTP/NCI, 2004).
Calls of active or inactive are those of the source.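 The calls were made as follows: active = compounds giving half or more protection of infected cells from virus-caused growth loss, again on retest; inactive = the rest.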

Test system: CEM cells HIV-1 protection, formazan growth assay
Test: NCI AIDS Antiviral Assay
Settings: for IC50: measured here: growth of uninfected CEM cells
How it was run: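 Human CEM cells, uninfected and HIV-1-infected, received five drug concentrations, and growth was read by soluble formazan assay. Compounds giving at least 50% protection were retested; reproducible 100% protection defined confirmed active.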

SMILES	EC50 [µM]	IC50 [µM]	outcome
COc1cc(C2c3c(ccc4ccccc34)C(=O)C3CCC(=O)N32)cc(OC)c1O (stereo not drawn)	> 25.1	1.29	
COc1ccc(C2=NC(CO)[C@H](c3ccccc3)O2)cc1OC (stereo partly drawn)	> 219	> 219	
Cn1c(=O)c2c(nc3sc4c(n32)C(=O)c2c(O)ccc(O)c2C4=O)n(C)c1=O	0.2	0.257	
COc1cc(OC)cc(OCc2nc3cc(C(F)(F)F)ccc3nc2-c2ccccc2)c1	> 200	52.5	
N=c1oc2ccccc2cc1-c1nc2ccccc2[nH]1			inactive
CCCC/C=C(/CCCNCCCC)[Si](C)(C)C	> 479	240	
O=S(Nc1ccccc1)c1cccc(Cl)c1 (stereo not drawn)			inactive
O=c1cc(CO)[nH]cc1O			inactive
CCOC(=O)c1ccc(C(=O)C(C(C)=O)C(=O)OC(C)(C)C)n1C (stereo not drawn)	43.7	74.1	
Cc1nc2c(=O)n(C)c(=O)n(C)c2o1	> 200	> 200	
COc1cc(C=C2N=C(c3ccccc3)N(n3c(-c4ccccc4)nc4ccccc4c3=O)C2=O)cc(OC)c1OC	> 200	30.9	
CC1=C(C(=O)Nc2ccccc2)C(c2cc(Cl)cc(Cl)c2)C(C(=O)Nc2ccccc2)=C(C)N1	> 14.5	> 14.5	
CCCCCCCCCCCCCCCC(=O)Nc1ccn(C2CCC(COP(=O)(O)OCC(COP(=O)(O)OCC3OC(n4cc(C)c(=O)[nH]c4=O)CC3N=[N+]=[N-])OC(=O)CCCCCCCCCCCCCCC)O2)c(=O)n1 (stereo not drawn)	0.0182	50.1	
O=C1CN(CC2=CC3(CC2)CCC2=C3CCCC2=O)C(=O)N1 (stereo not drawn)	> 417	> 417	
CN1C(=S)C2=C(c3ccccc3)N(C)C(=S)C2=C1c1ccccc1	102	> 200	
Cc1ccccc1-n1c(=S)n(-c2ccc(Cl)cc2)c2nc3ccccc3nc1/c2=N/Nc1cc(Cl)ccc1Cl	> 200	174	
OCC(O)C(O)C(O)c1nn[nH]n1 (stereo not drawn)			inactive
C=C1C[C@H]2[C@@H]3C=C(C)C4=CC(=O)CC[C@]4(C)[C@H]3CC[C@]2(C)[C@@]1(OC(C)=O)C(C)=O	> 200	28.2	
Nn1c(-c2ccccc2Nc2ccccc2-c2n[nH]c(=S)n2N)n[nH]c1=S	> 50.1	6.17	
COc1ccc(-c2oc3cc(-c4cc5oc(-c6ccc(OC)cc6)c(-c6ccc(OC)cc6)c5cc4OC)c(OC)cc3c2-c2ccc(OC)cc2)cc1	> 200	> 200	
COC(=O)[C@@H]1C[C@]2(CC=C(C)C)c3ccccc3N(S(=O)(=O)c3ccccc3)[C@@H]2N1C(=O)OC	> 200	20	

SMILES	EC50 [µM]	IC50 [µM]	outcome
O=c1oc2ccccc2c(O)c1C(c1ccc(-c2ccccc2)cc1)c1c(O)c2ccccc2oc1=O	> 200	35.5	
Cc1cc2n(C)cc(-c3ccnn3C)c(=O)n2n1	> 151	> 151	
CCC1NC2CC3(C(=O)N(OC)c4ccccc43)C3CC1C2CO3 (stereo not drawn)	> 269	> 269	
CSc1nc(C)c2c(n1)SCC2	> 200	> 200	
CC(=O)OCC1OC(n2c(C)c(N=Nc3ccccc3)c(C)c(C#N)c2=S)C(OC(C)=O)C(OC(C)=O)C1OC(C)=O (stereo not drawn)	> 200	> 200	
CC1=NN(c2ccccc2)C(=O)CC1	> 1320	> 1320	
C[N+](C)(C)CC(=O)N/N=C(/Cc1nc2c3c(ccc2[nH]c1=O)C(=O)c1ccccc1C3=O)C(=O)Nc1ccc(Cl)c(Cl)c1	> 20.9	> 20.9	
O=P(Nc1ccccc1)(Oc1ccccc1)N(CCCl)CCCl (stereo not drawn)	> 50.1	22.4	
COc1ccc(-c2cc(=O)c3c(O)cc(O)cc3o2)cc1	> 105	> 105	
COc1ccc(-c2oc3cc(OC)ccc3c(=O)c2O)cc1	> 200	> 200	
CCOC(=O)C/C(C)=N\NS(=O)(=O)c1ccc(N)cc1	> 417	> 417	
O=C(NNC(=O)c1ccc([N+](=O)[O-])cc1)c1ccc([N+](=O)[O-])cc1	> 200	> 200	
O=S(=O)(O)C(Br)(Br)Br	> 200	> 200	
Oc1ccc(-c2nc(-c3ccc(F)cc3)c(-c3ccc4ccccc4n3)[nH]2)cc1	> 200	21.4	
O=C1/C(=C/c2ccc(Br)s2)NC(=S)N1c1ccccc1	> 200	95.5	
O=C(O)CC1C(=O)OC2C3COC(=O)c4cc(O)c(O)c(O)c4-c4c(cc(O)c(O)c4O)C(=O)OC2C(OC(=O)c2cc(O)c(O)c4c2C1C(O)C(=O)O4)C(OC(=O)c1cc(O)c(O)c(O)c1)O3 (stereo not drawn)	3.31	18.6	
CCN(CC)C(C)(O)CN (stereo not drawn)	> 200	> 200	
COc1cc2c(c(OC)c1OC)-c1ccc(SC)c(=O)cc1[C@@H](NC(=O)C(F)(F)F)CC2	> 75.9	0.0245	
COc1ccc(C2=CC(=O)CCC2)cc1	> 178	> 178	
CCCCN=C(NCCCC)OC1CCCCC1	> 200	64.6	
CCOC(=O)Cn1sc2ncc([N+](=O)[O-])cc2c1=O	> 13.5	8.91	

SMILES	EC50 [µM]	IC50 [µM]	outcome
N#Cc1cnn2ccn(C3OC(COC(=O)c4ccccc4)C(OC(=O)c4ccccc4)C3OC(=O)c3ccccc3)c12 (stereo not drawn)	> 200	> 200	
O=C1C2Nc3ccccc3SC2C(=O)N1c1ccc(Br)cc1 (stereo not drawn)	> 19.1	> 19.1	
COC(=O)C1ON(c2ccccc2)C2c3ccccc3-c3ccccc3C12 (stereo not drawn)	> 5.62	> 5.62	
CCCCCCN(CCCCCC)CC(=O)Nc1ccc(S(=O)(=O)c2ccc(NC(=O)CN(CCCCCC)CCCCCC)cc2)cc1	> 200	11.5	
CCN(CC)CC/C=C1\c2ccccc2Sc2ccc(Cl)cc21			inactive
Cc1cc(S(=O)(=O)O)c(NC(=O)C(=O)Cc2cc(=O)oc3cc(O)ccc23)cc1Cl	> 79.4	> 79.4	
O=C(NNc1nc(Cl)nc(Cl)n1)c1ccccc1	> 200	> 200	
CCOC(=O)c1nnsc1NN	> 200	166	
COC(=O)C(=O)C(C(=O)C(=O)Nc1ccc(C)c(C)c1)c1nc2ccc([N+](=O)[O-])cc2[nH]c1=O (stereo not drawn)	> 537	234	
O=C(O/N=C1\CCCC\C1=C/c1ccccc1)c1ccc([N+](=O)[O-])cc1			inactive
Oc1ccc(-c2c3ccccc3c(-c3ccc(OCCBr)cc3)c3ccccc23)cc1	> 100	> 100	
Cc1nsnc1CCO	> 1740	> 1740	
O=C1[C@H](Cc2ccccc2)C[C@H]2CO[C@H](c3ccccc3)N12	> 200	38.9	
O=C1OC(O)C(Oc2c(Cl)cccc2Cl)=C1Cl (stereo not drawn)	> 40.7	19.1	
CNc1nc(C(N)=O)c(N)s1	> 200	> 200	
CC1=CC(C)(C)N=C2SC(c3ccc(Cl)cc3)=NN12	> 24.5	20	
CC1=Nc2ccccc2S/C1=C(/C)NNC(=O)C(N)=O	> 89.1	> 89.1	
CC1=CC(C)(C)SC(SSSSC2=NC(C)=CC(C)(C)S2)=N1	> 200	29.5	
O=C(NC(CO)C(=O)N[C@H]1c2ccsc2C(=O)[C@H]1O)OCc1ccccc1 (stereo partly drawn)			inactive
CCCCOP(=O)(/C=C\c1ccccn1)OCCCC	> 120	> 120	
CSc1nc(NC2OC(CO)C(O)C(O)C2O)cc(=O)n1C (stereo not drawn)			inactive
